The results in this text go back to PMC3161871, “Heteroarylketones inhibit astroglial interleukin-6 expression via a STAT3/NF-κB signaling pathway” (Journal of Neuroinflammation, 2011).

In data set [1] the test system is LPS-induced IL-6 release in primary rat astrocytes. Briefly: LPS-induced IL-6 release in primary rat astrocytes (ELISA). The conditions noted are these: 1 μg/ml LPS, 20 μM compound, 24 h. The data set is classed as cell-based. As to the method:
(§1) According to Löffler, astrocyte-rich primary cell cultures were started with brains of newborn mice and rats and were maintained in Dulbecco's modified Eagle's medium (DMEM) for 33 days at 37°C in a humified atmosphere with 95% air/5% CO2.
(§2) Measurements of IL-6 in conditioned medium and murine plasma samples were done by means of human- or murine-specific IL-6 Cytoset kits (Invitrogen, Darmstadt, Germany) according to manufacturer's protocols.
(§3) Figure 5 Suppression of LPS-induced IL-6 release in primary murine astrocytes by selected HAK compounds. […] Astrocytes derived from newborn mice and rats were cultivated for 33 days followed by stimulation with 1 μg/ml LPS and treatment with compounds HAK-2 and HAK-5 (20 μM). After 24 hours conditioned media were analyzed with IL-6 specific ELISA. Data (mean ± SD) were obtained from experiments carried out in quadruplicate and statistical analysis was performed using the paired t test. Amount of IL-6 in LPS-treated control sample was set to 100%. ns, not significant; **p < 0.01; ***p < 0.001.
(§4) Primary murine astrocytes stimulated with 1 μg/ml LPS were co-treated with compounds HAK-2 and HAK-5 at a concentration of 20 μM each for 24 h. The observed effect of compounds HAK-2 and HAK-5 on LPS stimulation was similar to that of OSM-induced IL-6 expression in human U343 glioma cells (Figures 5A and 5B). […]

Data set [2] concerns OSM-stimulated IL-6 secretion from U343 cells. The experiment in a line: OSM-induced IL-6 release from U343 glioma cells (IL-6 ELISA of conditioned medium). The data set is classed as cell-based, human. The settings on record: 20 μM compound, vehicle-transfected U343 cells, OSM 6 h.
The nature of data set [3]: Brain bioavailability by LC-MS/MS of mouse plasma and brain samples. The data set is classed as in vivo. As to the method:
Based on the results obtained from primary murine astrocytes, we reasoned that HAK compounds might also suppress elevated IL-6 expression in vivo. Therefore, bioactivity of the compound HAK-2 was analyzed in the LPS-induced mouse septic shock model. In preparation of this in vivo study, selected HAK compounds were characterized in detail concerning brain bioavailability. […] For further in vivo investigations compound HAK-2 with a logBB of -0.22 was selected.

For data set [4], the system named is LPS-induced IL-6 release in primary mouse astrocytes. The experiment in a line: LPS-induced IL-6 release in primary mouse astrocytes (ELISA). The data set is classed as cell-based. The settings on record: 1 μg/ml LPS, 20 μM compound, 24 h. As to the method:
as §1, §2, §3, §4
(In general: An ELISA detects its analyte on a solid surface through an enzyme-linked reagent.)

For data set [5], the system named is IL-6 mRNA expression in U343 cells. Briefly: OSM-induced IL-6 mRNA expression in U343 cells (qRT-PCR time course). In kind it is cell-based, human. The conditions noted are these: 20 μM compound. As to the method:
The human glioma cell line U343 [34] was maintained in DMEM containing 10% fetal bovine serum and 60 μg/ml gentamycin (Invitrogen, Darmstadt, Germany) at 37°C in a 10% CO2 atmosphere.
Total RNA of cultured cells and homogenized mouse brain tissue samples was isolated using RNA isolation kit "NucleoSpin RNA II" from Macherey and Nagel. RNA quantity was measured by spectrophotometrical quantification (NanoDrop 2000, Peqlab, Erlangen, Germany). Total RNA (0.5 μg) was transcribed to cDNA using Superscript III and oligo-dT primer (Invitrogen, Darmstadt, Germany). Quantitative real-time PCR was performed with QuantiFast SYBR Green PCR Master mix (Qiagen, Hilden, Germany) using Rotorgene 3000 system (Corbett, Sydney, Australia). Gene expression was normalized to the expression of three reference genes glyceraldehyde 3-phosphate dehydrogenase (GAPDH), glucose-6-phosphate dehydrogenase (G6PDH) and hypoxanthine-guanine phosphoribosyltransferase (HPRT). Primers for PREP (5'-[…]-3'; 5'- […]-3') and IL-6 (5'-AAAGGACGTCACATTGCA-3'; 5'-[…]-3') were designed using the Primer3 Software (http://frodo.wi.mit.edu/). Data were analyzed by Rotorgene 3000 Software version 6.0 by comparative quantitation. The appropriate size of PCR products was confirmed by gel-electrophoresis stained with ethidium bromide.
To analyze the time-course of OSM-induced IL-6 expression, U343 cells were incubated with OSM for different periods of time as indicated in figure 1B. Amounts of IL-6 mRNA and protein were subsequently quantified by qRT-PCR and by ELISA, respectively. […] Significant induction of IL-6 protein was detected in the conditioned medium as early as 3 h post stimulation and reaching a maximum at 24 h.
To reveal whether bioactivity of HAK compounds is based on suppression of IL-6 protein biosynthesis or on interference with IL-6 mRNA expression OSM-treated U343 cells were incubated with 20 μM of compound HAK-2 for different periods of time. […] Therefore, it is very likely that the relevant molecular target of HAK compounds is involved in the OSM-induced signal transduction process not earlier than 6 h after onset of the stimulation.
Figure 4 Time course of OSM-induced IL-6 mRNA expression in U343 cells treated with compound HAK-2. […] U343 cells were stimulated with 100 ng/ml OSM and treated with 0.1% DMSO as solvent control (solid line, black triangle) or 20 μM HAK-2 (dashed line, white triangle). Samples were harvested at time points indicated to extract total RNA. IL-6 mRNA expression was analyzed by qRT-PCR. All data points are presented as mean ± SD, and were obtained from experiments carried out in quadruplicate. Statistical analysis were performed between control and HAK-2 samples from same time point. ns, not significant; ***p < 0.001.
(In qPCR the cycle at which signal appears reflects the starting amount.)

Structures are written as SMILES.

Turning to `C[C@H](NC(=O)OCc1ccccc1)C(=O)N1CCC[C@H]1C(=O)c1nc2ccccc2s1` [HAK-2, Z-Ala-Pro-BTh], the “Reduction of LPS-induced IL-6 expression” value in data set [1] was 50%; in data set [4], 60%. Besides, the “IL-6 levels (mRNA and released protein) in the PREP knock-down experiment” value in data set [2] is on record as “reduces IL-6 levels”. This compound also registered a logBB in data set [3] of -0.22. The “Inhibition of OSM-induced IL-6 mRNA expression (time course)” value in data set [5] (100 ng/ml OSM) is recorded as “strong inhibition”. Besides, the “Effect on second IL-6 mRNA expression peak” value in data set [5] (100 ng/ml OSM, 6 h post stimulation) is on record as “completely suppresses”. In addition, the “Effect on first IL-6 mRNA peak” value in data set [5] (1 h post OSM stimulation) was “insensitive”.
